System: MDA-MB-231 multicell spheroids, viability
Assay: Anticancer human tumor MDA-MB-231 cell line growth inhibition [PI3K];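 further: spheroids exposed to agents for seven days before reading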;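 on viability, T/C: percent of vehicle control luminescence with DMSO treated spheroids as 100%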
Conditions: for IC50: curve of first compound; for viability, T/C: stronger effect = lower value
Excerpt: Combinatorial screen of targeted agents with the PI3K inhibitors inavolisib, alpelisib, duvelisib, and copanlisib in multi-cell type tumor spheroids
A high-throughput screen of multi-cell type tumor spheroids was designed to identify active combinations of targeted small molecules and PI3K pathway inhibitors. Complex spheroids include a stromal component modeled by human endothelial cells (HUVEC) and fibroblasts modeled by human mesenchymal stem cells (MSCs). The concentration ranges selected for each drug and investigational agent were based upon clinically achievable concentrations if the clinical Cmax of the agent was known.
Compounds. The drugs and investigational agents: inavolisib (NSC800729), alpelisib (NSC765974), duvelisib (NSC772469), copanlisib (NSC816437), ipatasertib (NSC767898), afuresertib (NSC778305), talazoparib (NSC767125), sapanisertib (NSC764658), selumetinib (NSC741078), tovorafenib (DAY101, NSC766906), vemurafenib (NSC761431), ravoxertinib (NSC781343), sotorasib (NSC818433), MRTX1133 (NSC 836407), abemaciclib (NSC 768073), palbociclib (NSC758247), venetoclax (NSC 766270), SY5609 (NSC837396), enzalutamide (NSC755605), and darolutamide (NSC825331), were obtained from the National Cancer Institute (NCI) Developmental Therapeutics Program Chemical Repository. The FDA-approved anticancer drug set is available from the NCI Developmental Therapeutics Program. […] The stock solutions were prepared in dimethyl sulfoxide (DMSO, Sigma-Aldrich, St. Louis, MO, cat. D2650) at 800-fold the tested concentration and stored at -70 degrees C prior to their use. All drugs and investigational agents were tested over a range starting from a high concentration at or near the clinical Cmax and decreasing in half-log increments. If the clinical Cmax for an agent had not been determined, the highest concentration tested was 10 microM.
Cell Culture. All cells were maintained in an incubator at 37 degrees C and 5% CO2 with 95% humidity. The PDC lines were cultured according to standard operating procedures established by the NCI PDMR (https://pdmr.cancer.gov/sops/default.htm). All PDCs were thawed and cultured in Matrigel-coated flasks prepared with a working solution of 1X Ham's F-12 nutrient mix, without supplementation (Invitrogen, Waltham, MA, cat. 11765054), 100 U/mL penicillin-streptomycin (Invitrogen, cat. 15140122), and 2.5% Matrigel (Corning Inc., Corning, NY, cat. 354248) for the first three passages. The 354836-022-R-J1-PDC, 475296-252-R-J1-PDC, and 997726-040-R-J2-PDC lines were cultured in 6A media, which includes advanced DMEM/F-12 (Thermo Fisher Scientific, cat. 12634028), 10 mM HEPES (Thermo Fisher Scientific, cat. 15630080), 1X GlutaMAX supplement (Thermo Fisher Scientific, cat. 35050061), 0.1 mg/mL primocin (InvivoGen, San Diego, CA, cat. ant-pm-2), 10% defined fetal bovine serum, heat inactivated (HyClone Laboratories Inc., Logan, UT, cat. SH30070.03HI), 50% L-WRN conditioned media (ATCC, cat. CRL-3276), 1.25 mM N-Acetyl-L-cysteine (Sigma-Aldrich, cat. A9165), 10 mM nicotinamide (Sigma-Aldrich, cat. N0636), 1X B-27 supplement (Thermo Fisher Scientific, cat. 17504044), 1X N-2 supplement (Thermo Fisher Scientific, cat. 17502048), and 10 microM Y-27632 dihydrochloride (Tocris Bioscience, Bristol, United Kingdom, cat. 1254). The 624824-186-R-J2-PDC line was cultured in 6C/Colon 1B media, which includes all 6A media components plus 50 ng/mL human EGF recombinant protein (Thermo Fisher Scientific, cat. PHG0311). […]

Question: Which IC50 (second compound 0.00316 µM) does the source give for `CC(C)NCC(C(=O)N1CCN(c2ncnc3c2C(C)CC3O)CC1)c1ccc(Cl)cc1` (configuration not stated) + CC(Nc1ccc2c(c1)OCCn1cc(N3C(=O)OCC3C(F)F)nc1-2)C(N)=O here?
Answer: 7.03 µM

Question: And the IC50 (second compound 0.01 µM)?
Answer: 6.95 µM

Question: And the IC50 (second compound 0.0316 µM)?
Answer: 5.1 µM

Question: What about the IC50 (second compound 0.1 µM) of the same compound?
Answer: 4.31 µM

Question: What about the IC50 (second compound 0.316 µM) of the same compound?
Answer: 2.69 µM

Question: And the IC50 (second compound 1 µM)?
Answer: 1.92 µM

Question: And the viability, T/C (second compound 0.00316 µM, first compound 0.0316 µM)?
Answer: 95.8%

Question: What about the viability, T/C (second compound 0.00316 µM, first compound 0.1 µM) of the same compound?
Answer: 94.6%

Question: And the viability, T/C (second compound 0.00316 µM, first compound 0.316 µM)?
Answer: 99.3%

Question: What about the viability, T/C (second compound 0.00316 µM, first compound 1 µM) of the same compound?
Answer: 86.6%

Question: And the viability, T/C (second compound 0.00316 µM, first compound 3.16 µM)?
Answer: 67.1%

Question: And the viability, T/C (second compound 0.00316 µM, first compound 10 µM)?
Answer: 42.5%

Question: What about the viability, T/C (second compound 0.01 µM, first compound 0.0316 µM) of the same compound?
Answer: 87.5%

Question: What about the viability, T/C (second compound 0.01 µM, first compound 0.1 µM) of the same compound?
Answer: 93.1%

Question: What about the viability, T/C (second compound 0.01 µM, first compound 0.316 µM) of the same compound?
Answer: 81.8%

Question: And the viability, T/C (second compound 0.01 µM, first compound 1 µM)?
Answer: 81.6%

Question: What about the viability, T/C (second compound 0.01 µM, first compound 3.16 µM) of the same compound?
Answer: 60.1%

Question: What about the viability, T/C (second compound 0.01 µM, first compound 10 µM) of the same compound?
Answer: 45.2%

Question: What about the viability, T/C (second compound 0.0316 µM, first compound 0.0316 µM) of the same compound?
Answer: 86.6%

Question: What about the viability, T/C (second compound 0.0316 µM, first compound 0.1 µM) of the same compound?
Answer: 84.1%

Question: And the viability, T/C (second compound 0.0316 µM, first compound 0.316 µM)?
Answer: 72.7%

Question: And the viability, T/C (second compound 0.0316 µM, first compound 1 µM)?
Answer: 71.4%

Question: What about the viability, T/C (second compound 0.0316 µM, first compound 3.16 µM) of the same compound?
Answer: 56.8%

Question: What about the viability, T/C (second compound 0.0316 µM, first compound 10 µM) of the same compound?
Answer: 39.9%

Question: What about the viability, T/C (second compound 0.1 µM, first compound 0.0316 µM) of the same compound?
Answer: 71.6%

Question: What about the viability, T/C (second compound 0.1 µM, first compound 0.1 µM) of the same compound?
Answer: 72.8%

Question: And the viability, T/C (second compound 0.1 µM, first compound 0.316 µM)?
Answer: 67.7%

Question: What about the viability, T/C (second compound 0.1 µM, first compound 1 µM) of the same compound?
Answer: 63.5%

Question: What about the viability, T/C (second compound 0.1 µM, first compound 3.16 µM) of the same compound?
Answer: 54.5%

Question: What about the viability, T/C (second compound 0.1 µM, first compound 10 µM) of the same compound?
Answer: 38.2%

Question: And the viability, T/C (second compound 0.316 µM, first compound 0.0316 µM)?
Answer: 66.2%

Question: And the viability, T/C (second compound 0.316 µM, first compound 0.1 µM)?
Answer: 63.7%

Question: And the viability, T/C (second compound 0.316 µM, first compound 0.316 µM)?
Answer: 59.7%

Question: What about the viability, T/C (second compound 0.316 µM, first compound 1 µM) of the same compound?
Answer: 61.6%

Question: And the viability, T/C (second compound 0.316 µM, first compound 3.16 µM)?
Answer: 47.2%

Question: What about the viability, T/C (second compound 0.316 µM, first compound 10 µM) of the same compound?
Answer: 30.8%

Question: What about the viability, T/C (second compound 1 µM, first compound 0.0316 µM) of the same compound?
Answer: 64%

Question: What about the viability, T/C (second compound 1 µM, first compound 0.1 µM) of the same compound?
Answer: 61.3%

Question: What about the viability, T/C (second compound 1 µM, first compound 0.316 µM) of the same compound?
Answer: 58.9%

Question: And the viability, T/C (second compound 1 µM, first compound 1 µM)?
Answer: 52.9%

Question: What about the viability, T/C (second compound 1 µM, first compound 3.16 µM) of the same compound?
Answer: 48.3%

Question: And the viability, T/C (second compound 1 µM, first compound 10 µM)?
Answer: 34.9%
